In publication PMC6769468, “Endogenous Neuropeptide Nocistatin Is a Direct Agonist of Acid-Sensing Ion Channels (ASIC1, ASIC2 and ASIC3)” (Biomolecules, 2019):
Ends that are not written are not given here.

What was measured:
rat ASIC1a [1] = molecular target: T1, rat ASIC1a (Rattus norvegicus, UniProt P55926); experiment: Inhibition of pH 5.5-induced ASIC1a current following rNS action; format: cell-based
T1 construct: expressed in transfected cells; host or cells: Xenopus laevis oocytes (injected)
T1 sequence (P55926 1-526): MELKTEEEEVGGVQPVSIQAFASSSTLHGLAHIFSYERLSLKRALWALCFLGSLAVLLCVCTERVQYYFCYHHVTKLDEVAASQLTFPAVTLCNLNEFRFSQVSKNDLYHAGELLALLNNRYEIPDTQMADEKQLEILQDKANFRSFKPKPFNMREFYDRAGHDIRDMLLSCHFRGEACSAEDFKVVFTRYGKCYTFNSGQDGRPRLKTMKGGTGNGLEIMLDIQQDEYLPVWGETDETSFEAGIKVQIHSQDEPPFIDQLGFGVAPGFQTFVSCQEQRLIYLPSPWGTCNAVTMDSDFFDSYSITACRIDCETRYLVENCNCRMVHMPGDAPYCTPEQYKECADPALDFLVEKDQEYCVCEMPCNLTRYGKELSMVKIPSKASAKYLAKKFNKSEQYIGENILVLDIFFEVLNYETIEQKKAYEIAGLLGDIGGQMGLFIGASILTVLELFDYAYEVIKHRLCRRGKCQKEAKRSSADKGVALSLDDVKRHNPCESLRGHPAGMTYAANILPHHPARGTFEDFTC
Protocol: Oocytes expressed rASIC1a, rASIC1b, rASIC2a, and rASIC3 homomeric channels were prepared as described. Injected oocytes were kept for two–three days at 19 °C and then for up to seven days at 15 °C in ND-96 medium supplemented with gentamycin (50 μg·mL^−1) and containing (in mM): 96 NaCl, 2 KCl, 1.8 CaCl2, 1 MgCl2, and 10 HEPES titrated to pH 7.4 with NaOH. Electrophysiological recordings were performed using the GeneClamp500 amplifier (Axon Instruments, Inverurie, UK) at a holding potential of -50 mV. The data were filtered at 20 Hz and digitized at 100 Hz using the L780 AD converter (L-Card, Moscow, Russia). Microelectrodes were filled with 3 M KCl. The external bath solution was ND-96 with pH adjusted to 7.4/7.8 (10 mM HEPES) /8.5 (10 mM Tris). Nocistatin containing solutions were freshly prepared and buffered each experimental day in ND-96 bath solution (pH 7.4/7.8/8.5). Proton-activated currents through ASIC channels were elicited by application of ND-96, in which 10 mM of HEPES was substituted with 10 mM MES at pH 5.5/ 10 mM acetic acid at pH 4.5. The whole-cell recording was performed if a response to the control pH stimulus was stable in at least two replicates. Nocistatin-activated currents were elicited by application of nocistatin containing solutions with various concentrations of the peptide.
Extracellular solutions were applied using a computer-controlled valve system with a flow rate of 1 mL/min. The oocyte chamber volume was 80 µL. The validity of the application system for studying ASIC channels expressed in oocytes was confirmed in experiments by application of a Cl-free solution (containing (in mM): 130 NMDG, 1 MgGluc2, 2 KGluc, 5 HEPES) (pH 7.4). Fast application of proton/peptide-activating solution was performed at a flow rate of 1 mL/sec (the change of the bath solution occurred within 100 ms), followed by PC controlled flow stopping (from 5 to 15 s).
(c) Generalized logistic differential equation (the four-parameter logistic nonlinear regression model or a Hill function) F3(x) = ((A1 – A2)/(1 + (x/x0)^nH)) + A2, where F3(x) is the response value at a given nocistatin concentration, x is the concentration of nocistatin; A1 is the control response value (fixed at 100%) or the minimum asymptote of the response when concentration = 0; A2 is the response value at maximal inhibition or the maximum asymptote or the stabilized response for an infinite concentration (% of control), x0 is the concentration at which 50% of the channels are expected to show the response (or the response halfway between the minimum response asymptote A1 and the maximum response asymptote A2) (IC50 value) and nH is the Hill coefficient (a level of cooperativity). The maximum amplitude (Imax) was calculated for each oocyte by individual fitting; the data were normalized to it, then the normalized data were averaged and fitted by the logistic equations F1(x) and F2(x).
All data are presented as mean ± SEM. The significance of normalized data differences was determined with a non-parametric Kruskal-Wallis ANOVA test with the significance level * p < 0.05 and ** p < 0.01; ns, non-significant.

rat ASIC1a [2] = molecular target: T1, rat ASIC1a; experiment: ASIC1a steady-state desensitization (SSD) by rNS preconditioning; format: cell-based; conditions: preconditioning with 0.04 to 0.1 mM rNS, then 1 mM rNS stimulus; n = 4
Protocol: Oocytes expressed rASIC1a, rASIC1b, rASIC2a, and rASIC3 homomeric channels were prepared as described. Injected oocytes were kept for two–three days at 19 °C and then for up to seven days at 15 °C in ND-96 medium supplemented with gentamycin (50 μg·mL^−1) and containing (in mM): 96 NaCl, 2 KCl, 1.8 CaCl2, 1 MgCl2, and 10 HEPES titrated to pH 7.4 with NaOH. Electrophysiological recordings were performed using the GeneClamp500 amplifier (Axon Instruments, Inverurie, UK) at a holding potential of -50 mV. The data were filtered at 20 Hz and digitized at 100 Hz using the L780 AD converter (L-Card, Moscow, Russia). Microelectrodes were filled with 3 M KCl. […]
Figure 2 Effects of nocistatin on rat ASIC1a channels. […] Calculated parameters of EC50 for non-discriminated sites, or EC501 for “cooperative” sites and EC502 for single site, are shown as a result of experimental data mathematical processing. The peak current amplitude is normalized to the maximum amplitude (Imax) calculated for each oocyte by individual fitting. […] Two independent dose-response curves were measured for the 1st (blue line) and the 2nd (green line) peak components of the current. Calculated parameters of IC50 are shown as a result of experimental data mathematical processing by F3(x) logistic equation (see Materials and Methods for detailed description). […]

[3] = amplitude of pH 5.5-induced current, F3, n = 5
[4] = pH 5.5 stimulus after 0.125–0.5 mM nocistatin pretreatment, n = 5

Sequence: MPRVRSVVQARDAEPEADAEPVADEADEVEQKQLQ [rNS]
- Reduction of the 1st versus the 2nd component of the current (rat ASIC1a [1]; IC50 comparison): reduced the 1st component of the current twice as effectively
- nH of inhibition, 1st component (rat ASIC1a [1]; [3]): 3.5 ± 0.4
- nH of inhibition, 2nd component (rat ASIC1a [1]; [3]): 1.9 ± 0.2
- nH, integral current inhibition (rat ASIC1a [1]; integral of pH 5.5-induced current after nocistatin, F3): 2.9 ± 0.4
- IC50 (rat ASIC1a [1]; integral of pH 5.5-induced current after nocistatin, F3 (fitted much worse than amplitude)): 150 ± 20 µM
- Concentration at which nocistatin acts as an inhibitor (rat ASIC1a [1]; low concentrations, Figure 2d and S2B): ≤ 0.2 mM
- tmax1, 1st component of proton-induced current (rat ASIC1a [1]; [4]): 0.495 ± 0.085 s
- tmax2, 2nd component of proton-induced current (rat ASIC1a [1]; [4]): 1.415 ± 0.112 s
- Steady-state desensitization (SSD) (rat ASIC1a [2]): does not -induce SSD
